Results reported in PubChem BioAssay (NCI).
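Where inhibition never reached the appropriate level, the endpoint shown equals the highest concentration tested. Otherwise, values were interpolated linearly from a five-concentration, 48-hour dose response in 96-well plates. At the TGI there is no net growth.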

How the values were obtained:
Assay in all cases: NCI anticancer screen, dose series, 48 h
[1] = test system: 786-0 renal
[2] = test system: A498 renal
[3] = test system: A549 NSCLC
[4] = test system: ACHN renal
[5] = test system: BT-549 breast
[6] = test system: CAKI-1 renal
[7] = test system: COLO 205 colon
[8] = test system: DU-145 prostate
[9] = test system: EKVX NSCLC
[10] = test system: HCT-116 colon
[11] = test system: HCT-15 colon
[12] = test system: HL-60(TB) leukemia
[13] = test system: HOP-62 NSCLC
[14] = test system: HOP-92 NSCLC
[15] = test system: HS 578T breast
[16] = test system: HT29 colon
[17] = test system: IGROV1 ovarian
[18] = test system: K-562 leukemia
[19] = test system: KM12 colon
[20] = test system: LOX IMVI melanoma
[21] = test system: M14 melanoma
[22] = test system: MALME-3M melanoma
[23] = test system: MCF7 breast
[24] = test system: MDA-MB-231 breast
[25] = test system: MDA-MB-435
[26] = test system: MDA-N
[27] = test system: MOLT-4 leukemia
[28] = test system: NCI-H226 lung
[29] = test system: NCI-H23 lung
[30] = test system: NCI-H522 lung
[31] = test system: NCI/ADR-RES ovarian
[32] = test system: OVCAR-3 ovarian
[33] = test system: OVCAR-4 ovarian
[34] = test system: OVCAR-5 ovarian
[35] = test system: OVCAR-8 ovarian
[36] = test system: PC-3 prostate
[37] = test system: RPMI-8226 leukemia
[38] = test system: RXF 393 renal
[39] = test system: SF-268 CNS
[40] = test system: SF-295 CNS
[41] = test system: SK-MEL-2 melanoma
[42] = test system: SK-MEL-28 melanoma
[43] = test system: SK-MEL-5 melanoma
[44] = test system: SK-OV-3 ovarian
[45] = test system: SN12C renal
[46] = test system: SNB-19 CNS
[47] = test system: SR leukemia
[48] = test system: SW-620 colon
[49] = test system: T-47D breast
[50] = test system: TK-10 renal
[51] = test system: U251 CNS
[52] = test system: UACC-257 melanoma
[53] = test system: UACC-62 melanoma
[54] = test system: UO-31 renal
[55] = test system: CCRF-CEM leukemia
[56] = test system: HCC-2998 colon
[57] = test system: NCI-H460 lung
[58] = test system: SF-539 CNS
[59] = test system: SNB-75 CNS

Measured: TGI

COC(=O)C(NC(=O)OC(C)(C)C)P(=O)(OC)OC (stereo not given)
not listed: [55] | [56] | [57] | [58] | [59]
> 100 µM: all other assays above

CCOC(=O)c1cc(Br)c(-c2cc(C)co2)[nH]1
not listed: [4] | [30] | [50]
> 100 µM: all other assays above
